The results in this text go back to PubChem BioAssay (NCI).

Some test systems named below: U251 CNS; HT29 colon; HCT-15 colon; SK-MEL-2 melanoma; MOLT-4 leukemia; UO-31 renal; 786-0 renal; DU-145 prostate; OVCAR-8 ovarian; TK-10 renal; SF-268 CNS; KM12 colon; SK-MEL-5 melanoma; ACHN renal; NCI/ADR-RES ovarian; NCI-H226 lung; SF-295 CNS; HCC-2998 colon.
Test in all cases: growth of human tumour cells (NCI), 48 h

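48-hour exposure; five concentrations; linearly interpolated endpoints. TGI denotes the concentration required for complete inhibition of growth.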 Where only a bound is given, the exact number is not on record here.

Turning to `O=C1c2cc(-c3ccccc3)cnc2S(=O)(=O)N1c1ccc(Br)cc1`, the TGI in the test with U251 CNS is 90.3 µM; with HT29 colon it was over 100 µM; in the test with HCT-15 colon, over 100 µM; in the test with SK-MEL-2 melanoma it was over 100 µM; in the test on MOLT-4 leukemia it was over 100 µM; in the test with UO-31 renal, over 100 µM. The TGI in the test with 786-0 renal, in the test on DU-145 prostate, with OVCAR-8 ovarian, with TK-10 renal, with SF-268 CNS and in the test with KM12 colon was over 100 µM each time. The TGI in the test with SK-MEL-5 melanoma is over 100 µM; with ACHN renal, over 100 µM; in the test with NCI/ADR-RES ovarian, over 100 µM; in the test with NCI-H226 lung, over 100 µM; in the test with SF-295 CNS, 38.5 µM; in the test on HCC-2998 colon, 39.5 µM.
Regarding `O=C1OC(C2Cc3ccc4ccccc4c3C2=O)c2ccccc21` (configuration not stated), the TGI with U251 CNS, in the test with HCT-15 colon, in the test on SK-MEL-2 melanoma, in the test with MOLT-4 leukemia, with UO-31 renal and in the test on 786-0 renal was over 100 µM in each case. Also, the TGI with DU-145 prostate was over 100 µM; in the test on OVCAR-8 ovarian it was over 100 µM; with TK-10 renal it was over 100 µM; with SF-268 CNS, over 100 µM; in the test with KM12 colon, over 100 µM; in the test with SK-MEL-5 melanoma, 98.2 µM. Besides, the TGI with ACHN renal is over 100 µM; in the test on NCI/ADR-RES ovarian it was over 100 µM; in the test with NCI-H226 lung it was 49.7 µM; in the test on SF-295 CNS, over 100 µM; with HCC-2998 colon, over 100 µM.
With `COc1ccc(N2C(=O)CC(=O)N(NC(=O)C(C)Oc3ccccc3C)C2=S)cc1` (configuration not stated), the TGI with U251 CNS, in the test with HT29 colon, in the test with HCT-15 colon, with SK-MEL-2 melanoma, in the test with MOLT-4 leukemia and with UO-31 renal was over 100 µM in each case. Moreover, the TGI in the test on 786-0 renal, in the test on DU-145 prostate, with OVCAR-8 ovarian, with TK-10 renal, in the test on SF-268 CNS and with KM12 colon was over 100 µM each time. The TGI with SK-MEL-5 melanoma, with ACHN renal, in the test with NCI/ADR-RES ovarian, in the test with NCI-H226 lung, with SF-295 CNS and with HCC-2998 colon was over 100 µM throughout.
Take `COc1ccc(C(=O)/C=C/c2ccc(OCCCOc3ccc(/C=C/C(=O)c4ccc(OC)cc4)cc3)cc2)cc1`: the TGI in the test on U251 CNS, in the test on HT29 colon, in the test with HCT-15 colon, in the test with SK-MEL-2 melanoma, in the test on MOLT-4 leukemia and in the test with UO-31 renal was over 100 µM in each case. Besides, the TGI with 786-0 renal, in the test with DU-145 prostate, in the test on OVCAR-8 ovarian, in the test with TK-10 renal, with SF-268 CNS and in the test on KM12 colon was over 100 µM throughout. Besides, the TGI in the test with SK-MEL-5 melanoma, in the test on ACHN renal, in the test with NCI/ADR-RES ovarian, with NCI-H226 lung, in the test with SF-295 CNS and with HCC-2998 colon was over 100 µM each time.
With `O=S(=O)(O)C(CO)c1ccccc1` (configuration not stated) (tested in a mixture with another compound), the TGI with U251 CNS, in the test with HT29 colon, in the test on HCT-15 colon, in the test on SK-MEL-2 melanoma, in the test with MOLT-4 leukemia and with UO-31 renal was over 100 µM in each case. Further, the TGI in the test on 786-0 renal, in the test with DU-145 prostate, with OVCAR-8 ovarian, in the test with TK-10 renal, in the test with SF-268 CNS and in the test with KM12 colon was over 100 µM in each case. Besides, the TGI with SK-MEL-5 melanoma, in the test with ACHN renal, in the test on NCI/ADR-RES ovarian, in the test on NCI-H226 lung, in the test with SF-295 CNS and in the test with HCC-2998 colon was over 100 µM each time.
Turning to `O=C1NC2c3c(I)sc(I)c3C(O)C2O1` (configuration not stated), the TGI with U251 CNS, in the test with HT29 colon, with HCT-15 colon, in the test with SK-MEL-2 melanoma, in the test on MOLT-4 leukemia and with UO-31 renal was over 100 µM each time. Further, the TGI in the test with 786-0 renal, with DU-145 prostate, in the test with OVCAR-8 ovarian, in the test on TK-10 renal, in the test with SF-268 CNS and in the test with KM12 colon was over 100 µM each time. The TGI with ACHN renal, with NCI/ADR-RES ovarian, with NCI-H226 lung, in the test on SF-295 CNS and with HCC-2998 colon was over 100 µM throughout.
Regarding `S=C1NC2=C(CSC/C2=C\c2cccc(Br)c2)C(c2cccc(Br)c2)N1` (configuration not stated), the TGI with U251 CNS, with HT29 colon, in the test on HCT-15 colon, in the test with SK-MEL-2 melanoma, with MOLT-4 leukemia and in the test on 786-0 renal was over 100 µM in each case. The TGI with DU-145 prostate, in the test with OVCAR-8 ovarian, in the test with TK-10 renal, in the test on SF-268 CNS, in the test with KM12 colon and in the test on SK-MEL-5 melanoma was over 100 µM in each case. The TGI in the test on ACHN renal, with NCI/ADR-RES ovarian, in the test with NCI-H226 lung, with SF-295 CNS and in the test on HCC-2998 colon was over 100 µM in each case.
As to `Cc1nc(C)c(C(=O)NNC(=O)C[N+](C)(C)C)cc1C(=O)NNC(=O)C[N+](C)(C)C`, the TGI with U251 CNS, with HT29 colon, with HCT-15 colon, in the test with SK-MEL-2 melanoma, in the test with UO-31 renal and with 786-0 renal was over 100 µM each time. For the same compound, the TGI in the test on DU-145 prostate, in the test on OVCAR-8 ovarian, in the test on TK-10 renal, in the test with SF-268 CNS, in the test with KM12 colon and in the test with SK-MEL-5 melanoma was over 100 µM throughout. The TGI in the test on ACHN renal, in the test with NCI/ADR-RES ovarian, in the test with NCI-H226 lung, in the test on SF-295 CNS and in the test with HCC-2998 colon was over 100 µM throughout.
Regarding `O=C(/C=C/c1ccccc1)Oc1ccc(C(=O)/C=C/c2ccccc2)cc1`, the TGI was 17.7 µM in the test on HT29 colon; 17.3 µM in the test with HCT-15 colon; over 66.1 µM in the test with SK-MEL-2 melanoma; 16.8 µM with MOLT-4 leukemia; 15.3 µM in the test on UO-31 renal; 13.7 µM with 786-0 renal. Moreover, the TGI amounted to 14.9 µM in the test on DU-145 prostate; 16 µM in the test on OVCAR-8 ovarian; 20.8 µM with TK-10 renal; 18.3 µM in the test with SF-268 CNS; 15.9 µM in the test with KM12 colon; 37 µM in the test on SK-MEL-5 melanoma. Also, the TGI in the test on ACHN renal is 18.3 µM; in the test on NCI/ADR-RES ovarian, 21.9 µM; in the test with NCI-H226 lung, over 100 µM; with SF-295 CNS, 24.4 µM; in the test with HCC-2998 colon, 15.3 µM.
`C[C@H](CCC(=O)O)[C@H]1CC[C@H]2[C@@H]3C(=O)C[C@@H]4C[C@H](O)CC[C@]4(C)[C@H]3C[C@H](O)[C@]12C`: the TGI with U251 CNS, in the test on HT29 colon, in the test with HCT-15 colon, in the test on SK-MEL-2 melanoma, in the test on MOLT-4 leukemia and with UO-31 renal was over 100 µM each time. The TGI with 786-0 renal, in the test with DU-145 prostate, with OVCAR-8 ovarian, in the test on TK-10 renal, with SF-268 CNS and with KM12 colon was over 100 µM in each case. The TGI with ACHN renal, in the test with NCI/ADR-RES ovarian, in the test with NCI-H226 lung and in the test on HCC-2998 colon was over 100 µM in each case.
Turning to `N#CNC(=NCc1ccccc1)N(Cc1ccccc1)Cc1ccccc1`, the TGI was over 31.6 µM with U251 CNS; over 31.6 µM in the test with HCT-15 colon; 26.4 µM with SK-MEL-2 melanoma; 47.7 µM with MOLT-4 leukemia; 29.3 µM with UO-31 renal; over 31.6 µM in the test with 786-0 renal. Besides, the TGI with DU-145 prostate is over 100 µM; in the test on OVCAR-8 ovarian it was over 31.6 µM; in the test on TK-10 renal, over 31.6 µM; in the test with SF-268 CNS it was over 31.6 µM; in the test on KM12 colon, over 31.6 µM; with SK-MEL-5 melanoma, 26.7 µM. In addition, the TGI with NCI/ADR-RES ovarian is over 100 µM; in the test with NCI-H226 lung, over 31.6 µM; in the test with SF-295 CNS, 29 µM; with HCC-2998 colon, over 100 µM.
Take `O=C(O)CCNc1ncnc2nc[nH]c12`: the TGI in the test with U251 CNS, in the test with HT29 colon, with HCT-15 colon, in the test with SK-MEL-2 melanoma, in the test with UO-31 renal and in the test with 786-0 renal was over 100 µM each time. For the same compound, the TGI in the test with DU-145 prostate, in the test with OVCAR-8 ovarian, in the test on TK-10 renal, with SF-268 CNS, in the test on KM12 colon and in the test on SK-MEL-5 melanoma was over 100 µM throughout. Also, the TGI in the test with ACHN renal, in the test on NCI/ADR-RES ovarian, in the test with NCI-H226 lung, in the test on SF-295 CNS and in the test on HCC-2998 colon was over 100 µM each time.
Regarding `CCCNc1ncnc2c1ncn2C`, the TGI in the test on U251 CNS, in the test with HCT-15 colon, in the test on SK-MEL-2 melanoma, in the test on MOLT-4 leukemia, in the test on UO-31 renal and with 786-0 renal was over 100 µM throughout. In addition, the TGI in the test on DU-145 prostate, in the test on OVCAR-8 ovarian, with TK-10 renal, in the test on KM12 colon, with SK-MEL-5 melanoma and with ACHN renal was over 100 µM throughout. Also, the TGI in the test with NCI/ADR-RES ovarian, in the test with NCI-H226 lung, in the test with SF-295 CNS and in the test with HCC-2998 colon was over 100 µM in each case.
With `CCOc1cc(/C=C2/C(C)=NN(c3cccc(Cl)c3)/C2=N/c2nc3ccccc3s2)ccc1O`, the TGI is 43 µM in the test with U251 CNS; over 100 µM in the test on HT29 colon; 69.8 µM in the test on HCT-15 colon; 41.4 µM with SK-MEL-2 melanoma; over 100 µM in the test with MOLT-4 leukemia; 52.8 µM with UO-31 renal. Moreover, the TGI in the test on 786-0 renal was over 100 µM; in the test with DU-145 prostate, over 100 µM; in the test on OVCAR-8 ovarian, over 100 µM; in the test with TK-10 renal, over 100 µM; in the test on SF-268 CNS, 86.1 µM; with SK-MEL-5 melanoma it was 40.2 µM. For the same compound, the TGI in the test on ACHN renal was determined as 63.6 µM; with NCI/ADR-RES ovarian, 55.9 µM; with NCI-H226 lung, 68 µM; in the test with SF-295 CNS it was 93.8 µM; in the test on HCC-2998 colon it was 35.6 µM.
`O=c1[nH][nH]c(=O)n1CCCCCCn1c(=O)[nH][nH]c1=O`: the TGI in the test on U251 CNS, in the test with HT29 colon, in the test on HCT-15 colon, in the test on SK-MEL-2 melanoma, in the test on MOLT-4 leukemia and with UO-31 renal was over 100 µM each time. The TGI in the test with 786-0 renal, with DU-145 prostate, in the test with OVCAR-8 ovarian, in the test with TK-10 renal, in the test on SF-268 CNS and in the test with KM12 colon was over 100 µM each time. Further, the TGI with SK-MEL-5 melanoma, in the test with NCI/ADR-RES ovarian, in the test on NCI-H226 lung and in the test on HCC-2998 colon was over 100 µM in each case.
With `Cc1c(/C=N\NC(=S)NCCNC(=S)N/N=C\c2c(C)n(C)n(-c3ccccc3)c2=O)c(=O)n(-c2ccccc2)n1C`, the TGI in the test with U251 CNS, in the test with HT29 colon, in the test with HCT-15 colon, with SK-MEL-2 melanoma, with MOLT-4 leukemia and in the test on UO-31 renal was over 100 µM each time. The TGI in the test with 786-0 renal, in the test with DU-145 prostate, with TK-10 renal, in the test with SF-268 CNS, in the test on KM12 colon and in the test with SK-MEL-5 melanoma was over 100 µM each time. The TGI with ACHN renal, in the test on NCI/ADR-RES ovarian, in the test with NCI-H226 lung, in the test on SF-295 CNS and in the test with HCC-2998 colon was over 100 µM in each case.
